Assay results published in article PMC6934184, “Selective DNA-PKcs inhibition extends the therapeutic index of localized radiotherapy and chemotherapy” (The Journal of Clinical Investigation, 2019).

Target: T1, AMPK (A2/B2/G2) (Homo sapiens, UniProt P54646)
T1 construct: purchased Thermo Fisher Scientific (Life Technologies) SelectScreen
Assay: SelectScreen LanthaScreen
Type: binding
Settings: read-out: % displacement
How it was run: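 SelectScreen broad panel; activity (Z'LYTE, Adapta) plus binding formats. ATP: Km app for CSF1R Z'LYTE; 10 for CAMK1 Adapta. Readout = % per kinase.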

T1 sequence (P54646 whole entry): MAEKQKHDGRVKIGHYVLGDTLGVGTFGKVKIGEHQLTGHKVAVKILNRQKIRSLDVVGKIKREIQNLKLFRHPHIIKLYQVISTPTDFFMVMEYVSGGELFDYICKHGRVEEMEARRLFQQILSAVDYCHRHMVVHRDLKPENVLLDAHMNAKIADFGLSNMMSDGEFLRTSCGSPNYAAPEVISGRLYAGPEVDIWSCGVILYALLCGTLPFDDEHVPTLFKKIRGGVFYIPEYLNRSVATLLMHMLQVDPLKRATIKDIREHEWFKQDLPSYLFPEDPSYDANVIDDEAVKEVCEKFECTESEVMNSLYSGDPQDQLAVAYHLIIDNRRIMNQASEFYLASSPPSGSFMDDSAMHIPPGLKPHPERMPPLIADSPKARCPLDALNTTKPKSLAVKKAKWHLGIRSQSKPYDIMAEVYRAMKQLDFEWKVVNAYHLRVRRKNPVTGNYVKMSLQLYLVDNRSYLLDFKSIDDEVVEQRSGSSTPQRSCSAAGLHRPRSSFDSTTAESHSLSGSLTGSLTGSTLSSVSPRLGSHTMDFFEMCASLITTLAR
T1 sequence (O43741 whole entry partner): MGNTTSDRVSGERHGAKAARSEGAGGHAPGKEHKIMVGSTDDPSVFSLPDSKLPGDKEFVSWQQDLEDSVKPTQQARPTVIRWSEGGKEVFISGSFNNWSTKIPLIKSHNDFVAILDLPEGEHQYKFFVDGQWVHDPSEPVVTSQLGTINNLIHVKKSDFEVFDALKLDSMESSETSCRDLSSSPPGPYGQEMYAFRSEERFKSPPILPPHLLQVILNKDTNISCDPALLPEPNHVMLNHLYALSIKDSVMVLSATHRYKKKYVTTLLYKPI
T1 sequence (Q9UGJ0 whole entry partner): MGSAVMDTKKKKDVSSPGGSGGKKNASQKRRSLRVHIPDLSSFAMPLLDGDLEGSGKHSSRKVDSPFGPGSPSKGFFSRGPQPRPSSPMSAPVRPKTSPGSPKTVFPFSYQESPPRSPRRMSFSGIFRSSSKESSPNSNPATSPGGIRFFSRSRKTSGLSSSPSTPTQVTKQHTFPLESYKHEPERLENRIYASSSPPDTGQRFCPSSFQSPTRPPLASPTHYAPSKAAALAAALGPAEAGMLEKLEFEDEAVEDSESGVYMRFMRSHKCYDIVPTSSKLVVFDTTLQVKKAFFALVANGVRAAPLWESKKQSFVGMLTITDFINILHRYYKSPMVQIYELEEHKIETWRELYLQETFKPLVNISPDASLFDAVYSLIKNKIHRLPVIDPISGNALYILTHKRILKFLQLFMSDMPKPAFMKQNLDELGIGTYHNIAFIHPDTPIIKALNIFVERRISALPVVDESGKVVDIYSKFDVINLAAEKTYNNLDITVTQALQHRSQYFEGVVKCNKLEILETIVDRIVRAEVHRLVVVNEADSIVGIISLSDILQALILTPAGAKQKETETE

Question: For CN(C(=O)CN1CCOCC1)c1ccc2sc3c(-c4cccc5c(=O)cc(N6CC7CCC(C6)O7)oc45)cccc3c2c1 [NU5455], which inhibition at 1 µM is on record?
Answer: -2.6%
